The results in this text go back to ChEMBL document CHEMBL4393659, “Insights into the chemistry and therapeutic potential of furanones: A versatile pharmacophore” (Eur J Med Chem, 2019).

Each structure is given as a SMILES string. Values after ≈ are worked out from the molar mass of the structure shown.

Data set [1] concerns Mus musculus. Nature of the data set: Anticonvulsant activity in ip dosed CF-1 mouse assessed as protection against PTZ-induced seizures measured after 30 mins […]. The class given is functional.
Data set [2] addresses GABA-A receptor; anion channel. Nature of the data set: Displacement of [35S]TBPS from GABAA (unknown origin) incubated for 90 mins by scintillation counting method. The class given is protein-complex assay, Homo sapiens.
The subject of another data set is Staphylococcus aureus. As to the kind of experiment: Antibacterial activity against Staphylococcus aureus. The class given is functional.
Another data set deals with Escherichia coli. Nature of the data set: Antibacterial activity against Escherichia coli. The class given is functional.
For the next data set, the system named is Plasmodium falciparum. Nature of the data set: Antimalarial activity against Plasmodium falciparum infected in human blood assessed as reduction in cell viability incubated for 72 hrs by Giemsa stain based assay. The class given is functional.
Another data set relates to Salmonella typhimurium. As to the kind of experiment: Inhibition of biofilm formation in Salmonella enterica subsp. enterica serovar Typhimurium 14028S incubated for 48 hrs by crystal violet staining based assay. The class given is functional, organism-based.
The test system of a further data set is Candida albicans. As to the kind of experiment: Antifungal activity against Candida albicans ATCC 90028 assessed as reduction in fungal cell viability measured after 24 and 48 hrs by spectrophotometry. The class given is functional.
The subject of data set [3] is Rattus norvegicus. As to the kind of experiment: Antiinflammatory activity in Wistar rat assessed as inhibition of carrageenan-induced edema measured upto 4 hrs. The class given is functional. In general terms: In the carrageenan paw model, swelling and tenderness develop within hours.
In data set [4] the target is GABA-A receptor; alpha-1/beta-2/gamma-2 (Homo sapiens) (UniProt P14867+P47870+P18507). As to the kind of experiment: Positive allosteric modulation of recombinant GABAA alpha1beta2gamma2 (unknown origin) expressed in Xenopus laevis oocytes assessed as increase GABA-stimulated current amplitude at 200 uM by electrophysiological two-electrode voltage clamp method. The class given is cell-based. A general note: Two-electrode voltage clamp is typically applied to oocytes expressing channels or transporters.

Data set [5] has as its system Rattus norvegicus. As to the kind of experiment: Antiinflammatory activity in albino rat assessed as inhibition of carrageenan-induced paw edema by measuring mercury displacement at 20 mg/kg , po relative to control. The class given is functional.
The subject of data set [6] is Rattus norvegicus. As to the kind of experiment: Antiinflammatory activity in Sprague-Dawley rat assessed as inhibition of carrageenan-induced paw edema at 3 mg/kg , po relative to control. The class given is functional.
Data set [7] is filed under the species Rattus norvegicus. As to the kind of experiment: Antiarthritic activity in adjuvant-induced Sprague-Dawley rat. The class given is functional.
Data set [8] in a line: Ulcerogenicity in Wistar rat assessed as gastric lesions by measuring ulcer severity index at 60 mg/kg , po measured after 17 hrs relative to ibuprofen. The class given is toxicity, organism-based. The conditions noted are these: in vivo.
Data set [9] has as its system Rattus norvegicus. As to the kind of experiment: Antiinflammatory activity in Wistar albino rat assessed as inhibition of carrageenan-induced paw edema at 20 mg/kg , po incubated for 30 mins followed by carrageenan addition and measured after 3 hrs by plethysmometry relative to control. The class given is functional.
In data set [10] the test system is Mus musculus. As to the kind of experiment: Analgesic activity in Swiss albino mouse assessed as inhibition of acetic acid induced writhing at 20 mg/kg , po incubated for 3 hrs followed by acetic acid administered and observed for 5 to 15 mins relative to control. The class given is functional. For orientation: Writhing tests count abdominal constrictions after an irritant is injected.

Data set [11] relates to Mus musculus. As to the kind of experiment: Anticonvulsant activity in ip dosed mouse assessed as reduction in PTZ-induced seizures pretreated for 30 mins followed by PTZ addition. The class given is functional.
The nature of data set [12]: Acute toxicity in Swiss albino mouse assessed as reduction in mortality of animal at 200 to 800 mg/kg , ip observed for 8 days. The settings on record: in vivo. The class given is organism-based.
Data set [13] addresses Prostaglandin G/H synthase 2 (Homo sapiens, UniProt P35354). Nature of the data set: Inhibition of recombinant human COX2 expressed in baculovirus infected Sf9 cells.

Prostaglandin G/H synthase 2, sequence (P35354 whole entry): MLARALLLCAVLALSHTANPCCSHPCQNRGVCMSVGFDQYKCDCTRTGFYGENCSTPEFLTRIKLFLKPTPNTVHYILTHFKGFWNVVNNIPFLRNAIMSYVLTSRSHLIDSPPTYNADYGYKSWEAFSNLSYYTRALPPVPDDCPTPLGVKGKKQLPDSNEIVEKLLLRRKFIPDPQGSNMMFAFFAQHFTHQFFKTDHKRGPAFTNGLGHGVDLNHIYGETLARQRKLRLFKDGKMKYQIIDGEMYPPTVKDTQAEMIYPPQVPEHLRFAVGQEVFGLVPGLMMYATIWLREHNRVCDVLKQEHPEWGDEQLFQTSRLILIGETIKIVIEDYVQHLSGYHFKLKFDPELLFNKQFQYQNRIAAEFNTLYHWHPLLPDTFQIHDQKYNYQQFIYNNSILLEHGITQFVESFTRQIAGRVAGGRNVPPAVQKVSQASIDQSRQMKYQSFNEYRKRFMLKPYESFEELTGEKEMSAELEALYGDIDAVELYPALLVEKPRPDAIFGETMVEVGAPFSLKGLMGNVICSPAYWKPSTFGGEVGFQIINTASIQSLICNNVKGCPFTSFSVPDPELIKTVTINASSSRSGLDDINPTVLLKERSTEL

What is called IC50 is the concentration that gives 50% inhibition. `CCC1(C)CC(C)(C(F)(F)F)OC1=O` (stereo not given): the CD50 with Mus musculus [1] was 47 mg/kg. In addition, the IC50 in data set [2] amounted to 224 µM.
As a reminder, the MIC is the smallest concentration in the dilution series that meets the test's criterion for growth inhibition. Turning to `C/C(C#N)=C1/OC(c2ccc(C)cc2)=C(Cl)C1=O`, the values for the minimum inhibitory concentration (MIC) in the data set with Staphylococcus aureus and in the data set on Escherichia coli were 15.6 µg/mL (≈ 60.1 µM) and 62.5 µg/mL (≈ 241 µM), respectively.
For the molecule `COc1cccc2cc(/C=C3/CC(c4ccc(C)cc4C)OC3=O)c(Cl)nc12` (stereo not given), the MIC in the data set with Plasmodium falciparum was in the range of 0.5 to 0.72 µg/mL (≈ 1.27 to 1.83 µM).
`O=C1C=CC(=C(Br)Br)O1` showed an IC50 with Salmonella typhimurium of 15 µM.
Take `CC(=O)OCC1C=C(c2ccc(Cl)c(Cl)c2)C(=O)O1` (stereo not given): in the data set with Candida albicans, the MIC turned out to be 2 µg/mL (≈ 6.64 µM).
Regarding `CC1(CC(F)(F)F)COC(=O)C1` (stereo not given), the CD50 in the data set with Mus musculus [1] amounted to 3 mg/kg. The molecule also came in with an IC50 in data set [2] of 8 µM.
As for `O=C1OC(c2ccc(-c3ccccc3)cc2)=C/C1=C\c1cc2ccc(Cl)cc2nc1Cl`, in the data set on Rattus norvegicus [3], the “inhibition (INH)” value is reported as 56 - 63%.
Take `O=C1OC(c2ccc3ccccc3c2)=C/C1=C\c1cc2ccccc2nc1Cl`: in the data set with Rattus norvegicus [3], the “inhibition (INH)” value is 56 - 63%.
Regarding `CCCC1(CCC)C(=O)OCC1NC(=O)OCC` (stereo not given), in [4], the Activity came out at 426%.
For the molecule `COc1cccc2cc(/C=C3/CC(c4ccc(Cl)cc4)OC3=O)c(Cl)nc12` (stereo not given), in the data set on Plasmodium falciparum, the MIC was 0.5 to 0.72 µg/mL (≈ 1.25 to 1.8 µM).
Usually inhibition in vivo stands for the percentage by which the read-out fell short of the control. For the molecule `COc1cc(/C=C2/C=C(c3ccc(C)cc3C)OC2=O)cc(OC)c1OC`, the inhibition in vivo at 20 mg/kg in the data set on Rattus norvegicus [5] stood at 48.4%.
For `CC(C1CCOC1=O)C(F)(F)F` (stereo not given), the CD50 in the data set on Mus musculus [1] amounted to 30 mg/kg. Further, in data set [2], the IC50 came out at 142 µM.
For `O=C1OC(c2ccc3ccccc3c2)=C/C1=C\c1cc2ccc(Cl)cc2nc1Cl`, in the data set on Rattus norvegicus [3], the “inhibition (INH)” value is on record as 56 - 63%.
Usually ED50 stands for the midpoint of the dose-response relation. `CC1(C)OC(c2ccc(S(C)(=O)=O)cc2)=C(c2cccc(C(F)(F)F)c2)C1=O`: the inhibition in vivo at 3 mg/kg with Rattus norvegicus [6] came to 32%. In addition, the median effective dose (ED50) in the data set filed under Rattus norvegicus [7] amounted to 0.06 mg/kg/day.
`CC(C)Cc1ccc(C2=C/C(=C\c3ccc(F)cc3)C(=O)O2)cc1`: the UI in [8] was determined as 0.1.
In the case of `O=C1OC(c2ccc(-c3ccccc3)cc2)=C/C1=C\c1cc2ccccc2nc1Cl`, the “inhibition (INH)” value in the data set with Rattus norvegicus [3] is 56 - 63%.
Take `O=C1OCCC1CC(F)(F)F` (stereo not given): the CD50 in the data set with Mus musculus [1] was 30 mg/kg. In data set [2], this molecule displayed an IC50 of 105 µM.
Turning to `O=C1OC(c2ccc(-c3ccccc3)cc2)=C/C1=C\c1cc2ccc([N+](=O)[O-])cc2nc1Cl`, the “inhibition (INH)” value in the data set on Rattus norvegicus [3] is recorded as 56 - 63%.
In turn, `O=C1C=C(Br)/C(=C/Br)O1` showed an IC50 with Salmonella typhimurium of 10 µM.
`O=C1C=C(c2ccc(Cl)cc2)O/C1=N\C12CC3CC(CC(C3)C1)C2` yielded an MIC in the data set with Escherichia coli of 7.8 µg/mL (≈ 22.8 µM).
As for `O=C1OC(c2ccc3ccccc3c2)=C/C1=C\c1ccc([N+](=O)[O-])cc1`, the inhibition in vivo at 20 mg/kg with Rattus norvegicus [9] is 74.8 to 89.7%; in the data set with Mus musculus [10], 70 to 74%.
For the molecule `CCC1(CC)CC(CCNC(=O)c2ccccc2)OC1=O` (stereo not given), the ED50 in the data set on Mus musculus [11] lay within 89.9 to 285 mg/kg.
Regarding `CC(C)Cc1ccc(C2=C/C(=C\c3ccccc3Cl)C(=O)O2)cc1`, in [8], the UI is on record as 0.2.
A word on the LD50: it is the dose expected to kill half of the subjects tested. Consider `O=C1O[C@H]([C@@H](O)CO)C(O)=C1O` [ASCORBIC ACID], for which the median lethal dose (LD50) at 192 h in [12] is more than 800 mg/kg.
Regarding `COc1cc(C2OC(=O)CC2C(C)=O)cc(OC)c1O` (stereo not given), in data set [12], the LD50 at 192 h came out at 200 mg/kg.
In the case of `CC(=O)OCC1C=C(c2ccc(Br)cc2)C(=O)O1` (stereo not given), in the data set on Candida albicans, the minimum inhibitory concentration (MIC) came to 0.5 µg/mL (≈ 1.61 µM).
As for `Cc1ccc2c(c1)C1=C(c3ccc(S(C)(=O)=O)cc3)C(=O)OC1CC2` (stereo not given), the IC50 in [13] lay within 0.5 to 0.6 µM.
With `COc1cc(/C=C2/C=C(c3ccc(C)cc3)OC2=O)cc(OC)c1OC`, in the data set on Rattus norvegicus [5], the inhibition in vivo at 20 mg/kg was found to be 45.2%.
